According to US9943525B2, “Composition for reducing cell senescence comprising Rho-kinase inhibitor and use thereof” (Samsung Electronics Co., Ltd., priority 2014, dated 2018):
Entries after “also recorded” stand apart in the source; their conditions may differ.

How the values were obtained:
[1] = tested on: senescent fibroblasts (after 37 cell passages); experiment: cell cycle analysis (Muse Cell Cycle Kit); format: cell-based, human; conditions: 5 μM; 4 weeks; vs DMSO control; FIG. 4
Procedure: The senescent fibroblasts (after 37 cell passages) were cultured in culture media respectively supplemented with 5 μM of Y-27632 (A), 5 μM of FASUDIL (B), and 0.5 μM of SR3677 (C) for 4 weeks in a 5% CO2 incubator at 37° C. The culture media were changed with new culture media respectively supplemented with 5 μM of Y-27632, 5 μM of FASUDIL, and 0.5 μM of SR3677 at every 4 days. Cell cycles were measured using a Muse™ Cell Cycle Kit (MERCK Millipore, MCH100106) in accordance with manufacturer's manuals. Light having a wavelength of 488 nm was irradiated to the cells using a Muse™ Cell Analyzer (MERCK Millipore) and light emission at 520 nm was measured. The results were analyzed using Cell Quest 3.2 software (Beckton Dickinson). The control group was prepared in the same manner, except that 0.05 (v/v) % of DMSO was added thereto.

[2] = tested on: senescent fibroblasts (after 37 cell passages); experiment: microscopic observation of cell number and shape; format: cell-based, human; conditions: 5 μM, 4 weeks, FIG. 3
Procedure: In addition, after senescent fibroblasts (after 37 cell passages) were cultured in the same culture media and same conditions as described above in the presence of 0.05 (v/v) % of DMSO and Y-27632 (5 μM), shapes of the cells were observed using a microscope. FIG. 3 is a microscopic image illustrating cell shapes of senescent fibroblasts (after 37 cell passages) cultured in the presence of Y-27632 for 4 weeks.

[3] = tested on: full-thickness punch-biopsy wounds on the dorsal skin of old (19 months old) male C57BL/6J mice; experiment: cutaneous wound healing assay in aged mice; format: in vivo, mouse; conditions: 0.5 mL 10 μM in 30% Pluronic gel applied to wounds every day, FIG. 23
Procedure: To further test whether ROCK inhibitor can promote cutaneous wound healing in old (19 months old) male mice (C57BL/6J mice), four full-thickness punch-biopsy wounds (8 mm in diameter)(four wound sites/mouse, five mice/group) were created on the dorsal skin of mouse, 0.5 mL 10 μM Y-27632 in 30% Pluronic gel (Pluronic F-127 Sigma, P2443-1KG) was applied to wounds every day, and then covered the wounds with Telfa sponges (Kendall Health Care, Mansfield, Mass., USA). DMSO was used as a control. All animal studies were reviewed and approved by the […] Animal Care and Use Committee of SKKU School of Medicine (SUSM). SUSM is an Association for Assessment and Accreditation of Laboratory Animal Care international accredited facility and abides by the Institute for Laboratory Animal Research guide. Wounds were photographed for 10 days. Immunohistochemistry analyses were performed on 5 μm paraffin embedded sections as described previously (Lin et. al., 2004. Developmental Biology 270, 474-486). Primary antibodies used for immunohistochemistry were mouse anti-α-smooth muscle actin (Sigma, F3777-2ML, 1:500), and mouse anti-PCNA (Santa Cruz Biotechnology, SC-56, 1:500). Secondary antibodies used for immunohistochemistry were EnVisionTM Detection System (DAKO, […]). […]

[4] = tested on: wound tissue of old (19 months old) male C57BL/6J mice; experiment: immunohistochemistry and Masson's trichrome staining of wound tissue sections; format: in vivo, mouse; conditions: 10 μM in 30% Pluronic gel topical daily
Procedure: To further test whether ROCK inhibitor can promote cutaneous wound healing in old (19 months old) male mice (C57BL/6J mice), four full-thickness punch-biopsy wounds (8 mm in diameter)(four wound sites/mouse, five mice/group) were created on the dorsal skin of mouse, 0.5 mL 10 μM Y-27632 in 30% Pluronic gel (Pluronic F-127 Sigma, P2443-1KG) was applied to wounds every day, and then covered the wounds with Telfa sponges (Kendall Health Care, Mansfield, Mass., USA). DMSO was used as a control. All animal studies were reviewed and approved by the […] Animal Care and Use Committee of SKKU School of Medicine (SUSM). SUSM is an Association for Assessment and Accreditation of Laboratory Animal Care international accredited facility and abides by the Institute for Laboratory Animal Research guide. Wounds were photographed for 10 days. Immunohistochemistry analyses were performed on 5 μm paraffin embedded sections as described previously (Lin et. al., 2004. Developmental Biology 270, 474-486). Primary antibodies used for immunohistochemistry were mouse anti-α-smooth muscle actin (Sigma, F3777-2ML, 1:500), and mouse anti-PCNA (Santa Cruz Biotechnology, SC-56, 1:500). Secondary antibodies used for immunohistochemistry were EnVisionTM Detection System (DAKO, […]). Masson's trichrome staining was performed according to the manufacturer's instructions (Polysciences Inc., Warrington Pa., USA). An immunohistochemical analysis was carried out to investigate the mechanism underlying the wound-healing process. […] FIG. 24 represents an immunohistochemical experimental result showing that Y-27632 treatment plays an important role in wound healing in old mouse (19 months old). Wound tissue sections were also subjected to Masson's trichrome staining to assess collagen deposition in the cross-sectional area of remodeled tissue.

O=S(=O)(c1cccc2cnccc12)N1CCCNCC1 [FASUDIL, 5-(1,4-diazepane-1-sulfonyl)isoquinoline]
number of cells in G0/G1 phases [1]: less than that of cells in S and G2/M phases

C[C@@H](N)[C@H]1CC[C@H](C(=O)Nc2ccncc2)CC1 [Y-27632, (1R,4R)-4-((R)-1-aminoethyl)-N-(pyridin-4-yl)cyclohexanecarboxamide]
cell shape [2]: spindle shape generally found in young cells
numbers of cells ([2]; vs DMSO): greater than that of the control group
number of cells in G0/G1 phases [1]: less than that of cells in S and G2/M phases
wound healing (wound appearance) ([3]; day 10, DMSO-treated wounds still showed remnants of scabs): near completion
wound healing process (wound size) ([3]; early points (days 3), vs DMSO, P<0.01): markedly accelerated
Masson's trichrome staining (collagen deposition) ([4]; DMSO: diffuse in granulation tissue, FIG. 24): strong in the dermis area
site of proliferation by PCNA immunolabeling ([4]; DMSO: selective proliferation in granulation tissue, FIG. 24): proliferation was observed in the supra basal area of epidermis
α-SMA immunoreactivity in wound area ([4]; control: high in granulation tissue, FIG. 24): diffuse in the dermis and was correlated with the appearance of collagen fibers
collagen thickness ([4]; relative to DMSO, P<0.01, FIG. 25): increased; also recorded: more dense and thicker collagen
number of PCNA-positive cells in the epidermis ([4]; vs control group, P<0.01, FIG. 26): higher
